{"source": "patent US20090264384A1", "about": "“INDOLE, BENZIMIDAZOLE, AND BENZOLACTAM BORONIC ACID COMPOUNDS, ANALOGS THEREOF AND METHODS OF USE THEREOF” (Nuada, Inc., priority 2004, published 2009)", "key": {"[1]": {"test_system": "arachidonic acid-induced ear edema", "assay": "Arachidonic acid-induced mouse ear edema model", "type": "in vivo", "details": "for inhibition of the irritant-induced ear edema: thirty minutes prior to arachidonic acid challenge; for Change in Ear Weight (mg) Average / % Inhibition / Ear Weight (mg) Left (−AA) / Ear Weight (mg) Right (+AA): topical; for % Inhibition: change in ear weight vs vehicle; for Ear Weight (mg) Left (−AA) / Ear Weight (mg) Right (+AA): individual mice", "protocol": "This example was carried out in male BALB/c mice. 42 BALB/c mice (Harlan Sprague-Dawley, Inc., male, PO # 452036, R #2449, 5-6 weeks) were received, individually examined, and housed in four cages of ten mice each and one cage containing two mice. Each animal was in apparent good health: no clinical signs of disease or distress. The animals were placed in quarantine with daily inspections.\n(§1) An aliquot of a representative presently disclosed compound was stored in an amber glass vial and stored at 25° C. […] 0.1 mL of this solution was diluted into 0.9 mL 190 proof alcohol to prepare a 0.5% solution.\n30 mg indomethacin (Sigma Cat. I-7378, lot 60K0745) was dissolved in 5 ml 0.1 M NaHCO3 to prepare a 6 mg/mL solution.\n48.9 μL arachidonic acid (Sigma Cat. A-9673. lot 057K1620) was dissolved in 450 μL 190 proof alcohol to prepare a 100 mg/mL solution.\nThe mice were numbered and weighed. The mice in Groups 1, 3, 4 were topically treated on both sides of both ears with either 25 μL 190 proof alcohol, 5% 5-(2-(4-Methoxyphenyl)-1H-benzo[d]imidazol-1-yl)pentylboronic acid, or 0.5% 5-(2-(4-Methoxyphenyl)-1H-benzo[d]imidazol-1-yl)pentylboronic acid. The mice in Group 2 were injected intraperitoneally with 5 mL/kg indomethacin (30 mg/kg). Thirty minutes after 190 proof alcohol, indomethacin, or 5-(2-(4-Methoxyphenyl)-1H-benzo[d]imidazol-1-yl)pentylboronic acid application/administration, 5 μL of the arachidonic acid solution was applied to the dorsal and ventral sides of the right ear. The contralateral ear was treated with 190 proof alcohol. One hour after alcohol/arachidonic acid application, the mice were euthanized, the ears removed and the ear weights recorded.\nSignificance (p-value) was calculated using Student's T-test. The effect of prophylactic topical treatment with a representative presently disclosed compound on arachidonic acid-induced murine ear edema is shown in FIG. 16."}, "phosphodiesterase [2]": {"molecular_target": "T1, phosphodiesterase (Homo sapiens, UniProt O76074)", "T1 construct": "IC50; other: Phosphodiesterase 5 (h); nH; other: Hill coefficient, Phosphodiesterase 5 (h)", "assay": "In vitro phosphodiesterase enzyme assays of Example 39 (IC50 determination)", "type": "biochemical", "protocol": "(§2) The in vitro pharmacology of 5-(2-(4-Methoxyphenyl)-1H-benzo[d]imidazol-1-yl)pentylboronic acid was determined with several enzymes as described in Table 19 using the experimental conditions of Table 18.\n(§3) Results. The corresponding inhibition curves were also determined (data not shown). Each is within accepted limits of the historic average ±0.5 log units. Table 21 contains the mean experimental values for the […] as performed as described above."}, "phosphodiesterase [3]": {"molecular_target": "T2, phosphodiesterase (Homo sapiens, UniProt O00408)", "T2 construct": "IC50; other: Phosphodiesterase 2 (h); nH; other: Hill coefficient, Phosphodiesterase 2 (h)", "T2 sequence (O00408 whole entry)": "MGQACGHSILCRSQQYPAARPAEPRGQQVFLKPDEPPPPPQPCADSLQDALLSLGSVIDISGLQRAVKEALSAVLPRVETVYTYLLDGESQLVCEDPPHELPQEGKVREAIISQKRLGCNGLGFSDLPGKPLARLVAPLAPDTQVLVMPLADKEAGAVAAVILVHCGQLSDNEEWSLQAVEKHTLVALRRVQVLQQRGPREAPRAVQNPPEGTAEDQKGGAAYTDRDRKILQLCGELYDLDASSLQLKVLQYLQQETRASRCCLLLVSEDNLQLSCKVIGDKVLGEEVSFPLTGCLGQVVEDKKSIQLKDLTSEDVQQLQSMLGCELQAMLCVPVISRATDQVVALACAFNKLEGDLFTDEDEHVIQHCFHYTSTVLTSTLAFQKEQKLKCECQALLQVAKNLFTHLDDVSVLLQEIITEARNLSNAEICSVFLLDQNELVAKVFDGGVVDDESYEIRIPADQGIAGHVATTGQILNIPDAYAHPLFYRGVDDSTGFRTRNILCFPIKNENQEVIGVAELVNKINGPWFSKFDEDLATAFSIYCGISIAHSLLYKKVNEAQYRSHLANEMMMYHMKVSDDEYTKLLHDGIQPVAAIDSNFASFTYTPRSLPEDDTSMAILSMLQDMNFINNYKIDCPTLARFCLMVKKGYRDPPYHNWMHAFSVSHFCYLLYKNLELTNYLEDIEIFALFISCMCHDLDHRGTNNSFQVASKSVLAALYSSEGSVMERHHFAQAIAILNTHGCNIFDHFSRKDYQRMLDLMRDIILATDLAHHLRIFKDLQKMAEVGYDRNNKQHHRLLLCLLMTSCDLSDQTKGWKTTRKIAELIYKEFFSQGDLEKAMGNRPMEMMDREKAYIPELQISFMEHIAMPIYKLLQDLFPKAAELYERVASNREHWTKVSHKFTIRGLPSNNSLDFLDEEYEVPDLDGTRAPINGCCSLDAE", "assay": "In vitro phosphodiesterase enzyme assays of Example 39 (IC50 determination)", "type": "biochemical", "protocol": "as §2, §3"}, "phosphodiesterase [4]": {"molecular_target": "T3, phosphodiesterase (Bos taurus, UniProt P11541+P23439)", "T3 construct": "IC50; other: Phosphodiesterase 6 (bovine retina); nH; other: Hill coefficient, Phosphodiesterase 6", "T3 sequence (P11541 2-856)": "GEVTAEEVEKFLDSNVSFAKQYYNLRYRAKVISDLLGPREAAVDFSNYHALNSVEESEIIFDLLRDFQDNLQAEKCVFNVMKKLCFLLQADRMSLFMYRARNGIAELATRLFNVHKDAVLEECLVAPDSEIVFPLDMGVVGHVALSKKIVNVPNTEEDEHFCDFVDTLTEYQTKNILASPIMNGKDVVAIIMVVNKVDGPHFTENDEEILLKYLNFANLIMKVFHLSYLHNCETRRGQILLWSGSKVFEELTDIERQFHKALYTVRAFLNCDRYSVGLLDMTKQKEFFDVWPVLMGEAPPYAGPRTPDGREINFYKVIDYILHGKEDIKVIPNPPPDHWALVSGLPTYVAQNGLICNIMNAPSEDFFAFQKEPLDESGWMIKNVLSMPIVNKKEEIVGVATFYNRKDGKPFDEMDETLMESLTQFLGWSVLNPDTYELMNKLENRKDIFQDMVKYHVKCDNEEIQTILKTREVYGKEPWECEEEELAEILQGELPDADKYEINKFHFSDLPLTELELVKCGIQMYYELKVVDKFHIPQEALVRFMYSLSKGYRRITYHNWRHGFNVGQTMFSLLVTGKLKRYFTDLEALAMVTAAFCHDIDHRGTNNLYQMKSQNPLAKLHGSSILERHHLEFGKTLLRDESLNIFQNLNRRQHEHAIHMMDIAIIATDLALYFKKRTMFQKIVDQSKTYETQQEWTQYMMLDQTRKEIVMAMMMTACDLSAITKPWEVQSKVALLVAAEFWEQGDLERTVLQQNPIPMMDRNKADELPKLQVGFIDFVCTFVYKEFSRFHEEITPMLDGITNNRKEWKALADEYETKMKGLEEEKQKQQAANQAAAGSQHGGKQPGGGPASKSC", "T3 sequence (P23439 2-850)": "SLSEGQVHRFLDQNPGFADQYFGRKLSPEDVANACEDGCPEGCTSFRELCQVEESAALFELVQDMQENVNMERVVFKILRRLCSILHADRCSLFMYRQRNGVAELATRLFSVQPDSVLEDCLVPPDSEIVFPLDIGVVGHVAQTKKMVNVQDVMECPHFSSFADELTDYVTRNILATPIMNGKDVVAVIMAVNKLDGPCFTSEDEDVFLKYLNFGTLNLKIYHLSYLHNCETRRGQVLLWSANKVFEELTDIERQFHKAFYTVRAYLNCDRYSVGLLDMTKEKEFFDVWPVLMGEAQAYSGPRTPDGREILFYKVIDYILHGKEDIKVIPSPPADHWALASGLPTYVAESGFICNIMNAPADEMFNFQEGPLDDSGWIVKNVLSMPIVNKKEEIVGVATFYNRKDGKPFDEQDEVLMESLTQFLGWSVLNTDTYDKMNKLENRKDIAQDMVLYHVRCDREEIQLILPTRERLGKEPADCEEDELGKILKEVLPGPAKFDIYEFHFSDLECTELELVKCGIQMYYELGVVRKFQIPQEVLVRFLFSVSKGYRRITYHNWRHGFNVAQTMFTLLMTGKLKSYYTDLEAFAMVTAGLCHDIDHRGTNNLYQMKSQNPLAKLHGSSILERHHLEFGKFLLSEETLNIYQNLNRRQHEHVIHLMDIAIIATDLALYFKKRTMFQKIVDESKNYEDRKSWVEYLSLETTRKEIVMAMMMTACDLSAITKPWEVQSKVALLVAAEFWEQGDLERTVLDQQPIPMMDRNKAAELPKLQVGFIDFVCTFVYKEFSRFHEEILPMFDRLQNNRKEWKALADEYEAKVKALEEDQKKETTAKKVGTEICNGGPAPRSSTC", "T3 sequence (P04972 whole entry partner)": "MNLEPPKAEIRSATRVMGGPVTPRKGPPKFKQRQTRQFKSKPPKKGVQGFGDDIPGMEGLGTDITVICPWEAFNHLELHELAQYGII", "assay": "In vitro phosphodiesterase enzyme assays of Example 39 (IC50 determination)", "type": "biochemical", "details": "Hill coefficient, Phosphodiesterase 6", "protocol": "as §2, §3"}, "phosphodiesterase [5]": {"molecular_target": "T4, phosphodiesterase", "T4 construct": "IC50; other: Phosphodiesterase 4 (h); nH; other: Hill coefficient, Phosphodiesterase 4 (h)", "assay": "In vitro phosphodiesterase enzyme assays of Example 39 (IC50 determination)", "type": "biochemical", "details": "Phosphodiesterase 4 (h)", "protocol": "as §2, §3"}, "TNF-α production by PMBC": {"test_system": "TNF-α production by PMBC", "assay": "Inhibition of TNF-α Production By Peripheral Blood Monocyte Cells (PMBC), LPS stimulated", "type": "cell-based", "details": "1 ug/mL LPS, 24 hours", "protocol": "PMBC in RPMI 1640 Cell Culture Medium (containing 1% Penicillin and 1% Streptomycin) are aliquoted into 96-well plates at 5×10^5 cells/well and pre-incubated with test compounds for 30 minutes at 37° C. After incubation, 1 ug/mL LPS is added to each well to stimulate TNF-α production and the plate is incubated for 24 hours at 37° C. After incubation, the supernatant is removed and the TNF-α secreted is quantified using EIA detection kits commercially available from R&D Systems (USA). The results from this assay are expressed as percent inhibition of control activity, with the control being stimulated wells with no test compound. Dexamethasone is used as a standard reference compound in the assay and is tested with each experiment. All test compounds are diluted from 10 mM stock solutions in 100% DMSO."}, "[6]": {"assay": "Solubility when preparing the topical solution", "type": "physicochemical", "protocol": "as §1"}, "HERG channel": {"molecular_target": "HERG channel (Homo sapiens, UniProt Q12809)", "sequence (Q12809 whole entry)": "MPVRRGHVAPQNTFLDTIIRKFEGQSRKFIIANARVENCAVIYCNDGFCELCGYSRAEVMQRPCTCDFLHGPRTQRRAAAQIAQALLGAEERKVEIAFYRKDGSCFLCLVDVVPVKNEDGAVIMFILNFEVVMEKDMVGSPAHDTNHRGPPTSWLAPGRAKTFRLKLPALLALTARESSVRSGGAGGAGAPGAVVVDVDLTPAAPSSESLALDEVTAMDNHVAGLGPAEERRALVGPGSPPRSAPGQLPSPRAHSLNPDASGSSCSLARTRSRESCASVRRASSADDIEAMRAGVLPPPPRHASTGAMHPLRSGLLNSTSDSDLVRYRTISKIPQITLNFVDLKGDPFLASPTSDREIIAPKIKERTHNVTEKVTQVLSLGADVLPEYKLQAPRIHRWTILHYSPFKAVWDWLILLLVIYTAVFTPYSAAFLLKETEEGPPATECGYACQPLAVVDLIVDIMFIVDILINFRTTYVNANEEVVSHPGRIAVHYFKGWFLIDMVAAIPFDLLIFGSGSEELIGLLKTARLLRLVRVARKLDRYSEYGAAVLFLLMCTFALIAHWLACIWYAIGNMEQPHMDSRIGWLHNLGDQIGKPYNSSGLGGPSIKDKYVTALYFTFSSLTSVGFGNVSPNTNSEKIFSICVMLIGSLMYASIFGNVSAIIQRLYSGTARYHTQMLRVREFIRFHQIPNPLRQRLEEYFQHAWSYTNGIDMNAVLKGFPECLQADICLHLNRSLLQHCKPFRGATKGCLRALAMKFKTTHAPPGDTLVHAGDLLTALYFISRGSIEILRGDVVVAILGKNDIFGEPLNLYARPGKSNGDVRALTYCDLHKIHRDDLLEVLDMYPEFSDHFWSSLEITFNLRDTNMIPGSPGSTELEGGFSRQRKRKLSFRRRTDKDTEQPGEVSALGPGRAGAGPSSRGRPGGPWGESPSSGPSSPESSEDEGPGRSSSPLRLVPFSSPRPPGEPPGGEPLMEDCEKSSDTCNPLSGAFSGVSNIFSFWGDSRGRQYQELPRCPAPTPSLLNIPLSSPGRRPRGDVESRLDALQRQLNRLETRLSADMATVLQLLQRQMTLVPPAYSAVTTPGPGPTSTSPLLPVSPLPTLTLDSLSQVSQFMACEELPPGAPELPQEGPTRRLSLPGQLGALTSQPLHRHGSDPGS", "assay": "ADME-Tox: QT Prolongation, HERG (patch-clamp)"}, "hERG": {"molecular_target": "hERG (Homo sapiens, UniProt Q12809)", "sequence (Q12809 whole entry)": "as above", "assay": "ADME-Tox: QT Prolongation, HERG (patch-clamp)", "details": "human, HEK-293 cells stably expressing HERG"}}, "note": "Values joined by “and” are separate entries in the source; they are usually repeats but may differ in a detail not shown here. Equal values may be shown once.", "data": [{"compound": "COc1ccc(-c2nc3ccccc3n2CCCCCB(O)O)cc1", "note": "[Example 7, 5-(2-(4-Methoxyphenyl)-1H-benzo[d]imidazol-1-yl)pentylboronic acid]", "values": [{"measurement": "inhibition of the irritant-induced ear edema", "setting": "[1]; 0.5% solution topical", "value": 12, "unit": "%"}, {"measurement": "Change in Ear Weight (mg) Average", "setting": "[1]; 0.5%", "value": 44.1, "unit": "mg"}, {"measurement": "inhibition of the irritant-induced ear edema", "setting": "[1]; 5% solution topical", "value": 46, "unit": "%"}, {"measurement": "Change in Ear Weight (mg) Average", "setting": "[1]; 5%", "value": 26.9, "unit": "mg"}, {"measurement": "% Inhibition", "setting": "[1]; 0.5%", "value": 12.2, "unit": "%"}, {"measurement": "% Inhibition", "setting": "[1]; 5%", "value": 46.4, "unit": "%"}, {"measurement": "Ear Weight (mg) Left (−AA)", "setting": "[1]; 0.5%", "value": "22 mg (2×) and 20 mg (4×) and 34 mg and 23 mg and 24 mg and 21 mg"}, {"measurement": "Ear Weight (mg) Right (+AA)", "setting": "[1]; 0.5%", "value": "76 mg and 63 mg and 55 mg and 82 mg and 78 mg and 50 mg and 62 mg and 77 mg and 60 mg and 64 mg"}, {"measurement": "Ear Weight (mg) Left (−AA)", "setting": "[1]; 5%", "value": "23 mg (3×) and 24 mg (2×) and 22 mg (3×) and 20 mg and 21 mg"}, {"measurement": "Ear Weight (mg) Right (+AA)", "setting": "[1]; 5%", "value": "50 mg and 48 mg and 57 mg and 42 mg and 55 mg and 51 mg and 53 mg and 49 mg and 44 mg (2×)"}, {"measurement": "nH", "setting": "phosphodiesterase [2]; Hill coefficient, Phosphodiesterase 5(h)", "value": 0.7}, {"measurement": "IC50", "setting": "phosphodiesterase [2]; Phosphodiesterase 5 (h)", "value": 0.96, "unit": "µM"}, {"measurement": "nH", "setting": "phosphodiesterase [3]; Hill coefficient, Phosphodiesterase 2(h)", "value": 0.8}, {"measurement": "IC50", "setting": "phosphodiesterase [3]; Phosphodiesterase 2 (h)", "value": 0.11, "unit": "µM"}, {"measurement": "nH", "setting": "phosphodiesterase [4]", "value": 0.9}, {"measurement": "IC50", "setting": "phosphodiesterase [5]", "value": 0.42, "unit": "µM"}, {"measurement": "IC50", "setting": "TNF-α production by PMBC", "value": 0.2, "unit": "µM"}, {"measurement": "solubility in acetone", "setting": "[6]", "value": "not soluble in acetone"}, {"measurement": "Potency Ranking", "setting": "HERG channel; HERG-channel blocker ranking, from 1 μM test (Table 21)", "value": "Moderate/High"}, {"measurement": "HERG-channel blocker potency class", "setting": "HERG channel; general potency ranking system (Roche et al.)", "value": "moderate/high"}, {"measurement": "inhibition at 1 µM", "setting": "hERG", "value": 49.7, "unit": "%"}]}]}
